According to ChEMBL document CHEMBL1145280, “Control of hepatitis C: a medicinal chemistry perspective” (J Med Chem, 2005):
Non-standard residues stand in square brackets, D forms with d. Residues, ends and D or L forms follow the SMILES beside them. *: point of attachment. Dip = N[C@H](C(=O)O)C(c1ccccc1)c1ccccc1; Hyp = O=C(O)[C@@H]1C[C@@H](O)CN1; Tic = O=C(O)[C@@H]1Cc2ccccc2CN1; X1 = O=C(O)C(=O)[C@H](CC(F)F)N*; Cha = N[C@@H](CC1CCCCC1)C(=O)O; Nle = CCCC[C@H](N)C(=O)O; Ahx = NCCCCCC(=O)O; Bn = c1ccc(C*)cc1

molecular target: T1, NS3 (Hepatitis C virus, UniProt A3EZJ3); experiment: Inhibitory concentration against hepatitis C virus NS3 protease; design: species or system Hepacivirus hominis; details: not given
T1 sequence (A3EZJ3 whole entry): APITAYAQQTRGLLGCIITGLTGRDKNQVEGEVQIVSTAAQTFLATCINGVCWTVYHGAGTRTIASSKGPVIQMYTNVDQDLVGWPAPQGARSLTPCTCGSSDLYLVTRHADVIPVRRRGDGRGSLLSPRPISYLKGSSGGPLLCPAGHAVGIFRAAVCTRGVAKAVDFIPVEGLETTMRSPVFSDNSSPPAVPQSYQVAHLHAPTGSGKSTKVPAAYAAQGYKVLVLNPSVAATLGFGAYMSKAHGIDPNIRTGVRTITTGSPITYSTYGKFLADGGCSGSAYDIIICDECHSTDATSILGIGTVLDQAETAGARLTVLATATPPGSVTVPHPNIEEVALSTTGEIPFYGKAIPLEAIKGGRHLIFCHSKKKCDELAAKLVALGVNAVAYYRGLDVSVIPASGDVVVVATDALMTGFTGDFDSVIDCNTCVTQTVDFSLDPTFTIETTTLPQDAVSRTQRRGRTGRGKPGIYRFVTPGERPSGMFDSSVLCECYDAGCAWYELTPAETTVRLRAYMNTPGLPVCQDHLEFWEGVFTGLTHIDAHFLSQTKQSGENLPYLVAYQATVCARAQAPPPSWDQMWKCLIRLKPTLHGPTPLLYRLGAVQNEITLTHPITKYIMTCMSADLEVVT

Compound	IC50 [µg/mL]
CC(=O)OCCC/C(=C1/SC(=S)N(CC(=O)O)C1=O)c1ccc(Br)cc1	6.4

same assay, conditions: read-out: IC50

Compound	IC50 [µM]
CCCC(=O)c1cc2c(c(O)c1C)C(=O)C(=O)c1c(O)cccc1-2	7
O=C(Nc1ccc(Oc2ccc(Cl)c3ccccc23)c(Cl)c1)c1cc(Cl)ccc1NS(=O)(=O)c1ccc(Cl)cc1	6.5
Ac-DDIVPC-OH	71
O=C1C=C2C(=CCOC2O)O1 (stereo not drawn) [PATULIN]	3.8
CCCC[C@H](NC(=O)[C@@H]1Cc2ccccc2CN1C(=O)[C@H](CS)NC(=O)[C@H](CC1CCCCC1)NC(=O)[C@@H](NC(=O)[C@@H](NC(=O)[C@H](CCC(=O)O)NC(=O)[C@H](CC(=O)O)NC(C)=O)C(c1ccccc1)c1ccccc1)[C@@H](C)CC)C(=O)N[C@@H](CO)C(=O)N[C@@H](Cc1ccc(O)cc1)C(N)=O (Ac-DE[Dip]I[Cha]C[Tic][Nle]SY-NH2)	0.1
CCCC[C@H](NC(=O)[C@@H]1CCCN1C(=O)[C@H](CS)NC(=O)[C@H](CC1CCCCC1)NC(=O)[C@@H](NC(=O)[C@@H](NC(=O)[C@H](CCC(=O)O)NC(=O)[C@H](CC(=O)O)NC(C)=O)C(c1ccccc1)c1ccccc1)[C@@H](C)CC)C(=O)N[C@@H](CC(=O)O)C(=O)N[C@H](C(N)=O)C(C)C (Ac-DE[Dip]I[Cha]CP[Nle]DV-NH2)	1.8
O=C1NC(=S)S/C1=C/c1cc([N+](=O)[O-])ccc1Sc1ccc(Cl)cc1	3.2
CC(C)C[C@H](NC(=O)[C@H](CC(=O)O)NC(=O)[C@H](CC1CCCCC1)NC(=O)[C@@H]1CCCC[C@H]1C(=O)O)C(N)=O	15
CC(=O)OC1OCC=C2OC(=O)C=C21 (stereo not drawn)	7.2
O=C(Nc1cc(Cl)ccc1Oc1ccc2ccccc2c1Cl)c1cc(Cl)cc(Br)c1O	6.2
C=C[C@H]1C[C@]1(NC(=O)[C@@H]1C[C@@H](Oc2cc(-c3ccccc3)nc3ccccc23)CN1C(=O)[C@@H](NC(=O)[C@@H](NC(C)=O)C1CCCCC1)C(C)C)C(=O)O	0.013
CC[C@H](C)[C@H](NC(=O)[C@@H](NC(=O)[C@H](CCC(=O)O)NC(=O)[C@H](CC(=O)O)NC(C)=O)C(c1ccccc1)c1ccccc1)C(=O)N[C@@H](CC1CCCCC1)C(=O)N[C@@H](CS)C(=O)N1CCC[C@H]1C(=O)N[C@@H](CC1CCCCC1)C(=O)N[C@@H](CC(=O)O)C(=O)N[C@H](C(N)=O)C(C)C (Ac-DE[Dip]I[Cha]CP[Cha]DV-NH2)	1.3
CC[C@H](C)[C@H](NC(=O)OCc1ccccc1)C(=O)N[C@@H](CC(C)C)C(=O)N[C@@H](CC(F)F)C(=O)C(=O)O	1.7
CCCCCCCCCCCCCNC(=O)c1c(O)cc(O)c([N+](=O)[O-])c1O	5.8
CC(=O)N[C@@H](CC(=O)O)C(=O)N[C@@H](CCC(=O)O)C(=O)N[C@@H](CC1CCCCC1)C(=O)N[C@H](C(=O)N1C[C@@H](OCc2ccccc2)C[C@H]1C(=O)NC1(C(=O)O)CC1)C(C)C	0.051
O=C1C=C2C(=CCOC2OC(=O)c2cccc(Br)c2)O1 (stereo not drawn)	12.6
COc1ccc2c(O[C@@H]3C[C@H]4C(=O)N[C@]5(C(=O)O)C[C@H]5/C=C\CCCCC[C@H](NC(=O)OC5CCCC5)C(=O)N4C3)cc(-c3csc(NC(C)C)n3)nc2c1 [CILUPREVIR]	3
CCCC[C@H](NC(=O)[C@@H]1Cc2ccccc2CN1C(=O)[C@H](CS)NC(=O)[C@H](CC(C)C)NC(=O)[C@@H](NC(=O)[C@@H](NC(=O)[C@H](CCC(=O)O)NC(=O)[C@H](CCC(=O)O)NC(C)=O)C(C)C)C(C)C)C(=O)N[C@@H](CO)C(=O)N[C@@H](Cc1ccc(O)cc1)C(N)=O (Ac-EEVVLC[Tic][Nle]SY-NH2)	1
CC[C@H](C)[C@H](NC(=O)OC(C)(C)C)C(=O)N[C@@H](CC(C)C)C(=O)N[C@@H](CC(F)F)C(=O)C(=O)O	1
CC(=O)N[C@@H](CC(=O)O)C(=O)N[C@@H](CCC(=O)O)C(=O)N[C@@H](CC1CCCCC1)C(=O)N[C@H](C(=O)N1C[C@H](OCc2ccccc2)C[C@H]1C(=O)N[C@@H](CS)C(=O)O)C(C)C (Ac-DE[Cha]V[Hyp](Bn)C-OH)	0.033

molecular target: T1, NS3; experiment: Inhibitory constant against hepatitis C virus NS3 protease; design: species or system Hepacivirus hominis; details: not given

Compound	Ki [µM]
Ac-DEMEEC-OH	0.6
CC(=O)N[C@@H](CC(=O)O)C(=O)N[C@@H](CCC(=O)O)C(=O)N[C@H](C(=O)N[C@@H](CCC(=O)O)C(=O)N[C@@H](CC1CCCCC1)C(=O)N[C@@H](CS)C(=O)O)C(c1ccccc1)c1ccccc1 (Ac-DE[Dip]E[Cha]C-OH)	0.04
CC(C)COC(=O)N[C@@H](CCC(=O)O)C(=O)N[C@@H](CC(C)C)C(=O)N[C@@H](CC(F)F)C(=O)NCCc1ccc(C(=O)O)cc1Cl	0.6
O=C(O)[C@H](Cc1ccccc1)N(Cc1ccc(-c2cc3ccccc3o2)s1)C(=O)c1ccc(Cl)cc1Cl	2.2
O=C(O)[C@H](Cc1ccccc1)N(Cc1cccc(C(F)(F)F)c1)C(=O)c1ccc(Cl)cc1Cl	2.2
CC(=O)N[C@@H](CC(=O)O)C(=O)N[C@@H](CCC(=O)O)C(=O)N[C@H](C(=O)N[C@@H](CCC(=O)O)C(=O)N[C@@H](CC1CCCCC1)C(=O)N[C@@H](CC(F)F)C(=O)C(=O)O)C(c1ccccc1)c1ccccc1 (Ac-DE[Dip]E[Cha]-X1)	0.01

molecular target: T1, NS3; experiment: Inhibitory concentration against hepatitis C virus NS4A binding region of NS3 protease; design: species or system Hepacivirus hominis; details: not given

Compound	IC50 [µM]
CC[C@H](C)[C@H](NC(=O)[C@H](CCCNC(=N)N)NC(=O)CNC(=O)[C@@H](NC(=O)[C@@H](NC(=O)[C@@H](NC(=O)[C@@H](NC(=O)[C@H](CS)NC(=O)CCCCCNC(=O)CCCCCNC(=O)[C@H](CS)NC(=O)[C@H](CS)NC(=O)[C@@H](NC(=O)[C@@H](NC(=O)[C@H](CC(=O)O)NC(=O)[C@@H](N)CCC(=O)O)C(C)C)C(C)C)C(C)C)C(C)C)[C@@H](C)CC)C(C)C)C(=O)N[C@H](C(=O)N[C@@H](CC(C)C)C(=O)N[C@@H](CO)C(=O)NCC(=O)N[C@@H](CCCCN)C(=O)O)C(C)C (H-EDVVCC[Ahx][Ahx]CVVIVGRIVLSGK-OH)	0.6
CC[C@H](C)[C@H](NC(=O)[C@H](CCCN=C(N)N)NC(=O)CNC(=O)[C@@H](NC(=O)[C@@H](NC(=O)[C@@H](NC(=O)[C@@H](NC(=O)[C@H](CS)NC(=O)CCCCCNC(=O)[C@H](CS)NC(=O)[C@H](CS)NC(=O)[C@@H](NC(=O)[C@@H](NC(=O)[C@H](CC(=O)O)NC(=O)[C@@H](N)CCC(=O)O)C(C)C)C(C)C)C(C)C)C(C)C)[C@@H](C)CC)C(C)C)C(=O)N[C@H](C(=O)N[C@@H](CC(C)C)C(=O)N[C@@H](CO)C(=O)NCC(=O)N[C@@H](CCCCN)C(=O)N[C@@H](CCCCN)C(=O)O)C(C)C (H-EDVVCC[Ahx]CVVIVGRIVLSGKK-OH)	3

molecular target: Genome polyprotein (Hepatitis C virus genotype 1a (isolate 1) (HCV), UniProt P26664); experiment: Inhibitory concentration against hepatitis C virus polymerase; design: species or system Hepacivirus hominis; details: not given
Sequence (P26664 2421-3011 limits assumed): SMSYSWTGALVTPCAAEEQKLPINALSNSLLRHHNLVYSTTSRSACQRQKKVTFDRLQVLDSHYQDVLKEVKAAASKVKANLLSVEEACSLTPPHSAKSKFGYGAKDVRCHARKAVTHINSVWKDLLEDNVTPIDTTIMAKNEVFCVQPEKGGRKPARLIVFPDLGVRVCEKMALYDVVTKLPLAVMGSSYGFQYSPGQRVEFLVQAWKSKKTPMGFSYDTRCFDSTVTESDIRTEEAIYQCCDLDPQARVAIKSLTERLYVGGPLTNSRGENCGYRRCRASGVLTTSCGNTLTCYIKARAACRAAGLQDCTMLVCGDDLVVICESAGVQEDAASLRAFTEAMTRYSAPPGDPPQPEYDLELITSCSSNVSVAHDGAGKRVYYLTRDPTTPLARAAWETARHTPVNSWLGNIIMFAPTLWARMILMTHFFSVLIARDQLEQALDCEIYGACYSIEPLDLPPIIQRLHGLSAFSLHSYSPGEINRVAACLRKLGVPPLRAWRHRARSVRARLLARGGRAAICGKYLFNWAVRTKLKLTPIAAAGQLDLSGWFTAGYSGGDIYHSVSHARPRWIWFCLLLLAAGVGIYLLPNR

Compound	IC50 [µM]
COc1ccc(CCNC(=O)c2ccc3c(c2)nc(-c2ccccn2)n3C2CCCCC2)cc1OC	12
O=C(N[C@@H](Cc1c[nH]c2ccccc12)C(=O)O)c1ccc2c(c1)nc(-c1ccoc1)n2C1CCCCC1	< 1
O=C(O)c1ccc2c(c1)nc(-c1ccccn1)n2C1CCCCC1	4.3
N#Cc1c(Cl)cccc1-c1cccc(C(=O)CC(=O)C(=O)O)c1	0.11
O=C(O)c1ccc2c(c1)nc(-c1ccc(OCc3cc(C(=O)N4CCC(O)CC4)ccc3-c3ccc(Cl)cc3)cc1F)n2C1CCCCC1	< 10
N#Cc1ccc(Br)cc1-c1cccc(C(=O)CC(=O)C(=O)O)c1	0.1
N#Cc1ccc(Br)cc1Oc1ccccc1C(=O)CC(=O)C(=O)O	0.35
O=C(O)C(=O)CC(=O)c1ccccc1	5.7
O=C(NCc1ccccc1Cl)Nc1ccsc1-c1nc(O)c(O)c(C(=O)O)n1	0.1
N#Cc1c(Cl)cc(Cl)cc1-c1cccc(C(=O)CC(=O)C(=O)O)c1	0.045
CC(C)CCn1c(=O)c(C2=NS(=O)(=O)c3ccccc3N2)c(O)c2ccccc21	0.8

tested on: Internal ribosome entry site (IRES); experiment: Inhibitory concentration against hepatitis C virus internal ribosomal entry site; assay type: nucleic-acid assay, Hepacivirus hominis; details: not given

Compound	IC50 [µM]
Nc1ccc2[nH]c3ccc(N)cc3c2c1	> 10
Nc1ccc2c(c1)Oc1ncc(N)cc1C(=O)N2	> 10
CN(C)c1ccc(Nc2ccc(N(C)C)cc2)cc1	2.19
Cc1cc2nc3ccc(N(C)C)cc3nc2cc1N	0.02
Nc1ccc2nc3ccc(N)cc3[s+]c2c1 [THIONIN ACETATE]	2.86
Nc1ccc2c(c1)NC(=O)c1cc(N)cnc1O2	> 10
CN(C)c1ccc(C(=O)c2ccc(N(C)C)cc2)cc1 [MICHLER'S KETONE]	> 10
Nc1ccc(Nc2ccc(N)cc2)cc1	> 10
CN(C)c1ccc2c(c1)Sc1cc(N(C)C)ccc1N2C(=O)c1ccccc1	> 10
CCN(CC)c1ccc2[o+]c3cc(C)c(N)cc3nc2c1	1

molecular target: T1, NS3; experiment: Inhibitory concentration against hepatitis C virus helicase; design: species or system Hepacivirus hominis; details: not given

Compound	IC50 [µM]
O=C1NNC(=O)c2c(ncn2[C@H]2O[C@@H](COP(=O)(O)OP(=O)(O)OP(=O)(O)O)[C@H](O)[C@@H]2O)N1	1.5
c1cc(CN2CCC(C3=NC4CCCCC4N3)CC2)ccc1CN1CCC(C2=NC3CCCCC3N2)CC1 (stereo not drawn)	7
O=C(CCCCC(=O)Nc1ccc(-c2nc3ccccc3[nH]2)cc1)Nc1ccc(-c2nc3ccccc3[nH]2)cc1	0.7
CC(=O)O[C@H]1C(=O)[C@@]2(C)[C@H]([C@H](OC(=O)c3ccccc3)[C@]3(O)C[C@H](OC(=O)[C@H](O)[C@@H](NC(=O)c4ccccc4)c4ccccc4)C(C)=C1C3(C)C)[C@]1(OC(C)=O)CO[C@@H]1C[C@@H]2O [PACLITAXEL]	> 1
Nc1nc(=O)c2c(ncn2C2O[C@H](CO)C(O)C2O)c(=O)[nH]1 (single isomer, unassigned)	12
OC[C@H]1O[C@@H](n2nnc3cc(Cl)c(Cl)cc32)[C@H](O)[C@@H]1O	1.5
Brc1c(Br)c(Br)c2[nH]nnc2c1Br [TETRABROMOBENZOTRIAZOLE]	20
COc1cccc2c1C(=O)c1c(O)c3c(c(O)c1C2=O)C[C@@](O)(C(=O)CO)C[C@@H]3O[C@H]1C[C@H](N)[C@@H](O)[C@H](C)O1 [EPIRUBICIN]	0.75
COC(=O)[C@@H]1c2cc3c(c(O)c2[C@@H](O[C@@H]2O[C@@H](C)[C@H](OC)[C@@](C)(OC)[C@H]2OC)C[C@]1(C)O)C(=O)c1c(O)cc2c(c1C3=O)O[C@@H]1O[C@@]2(C)[C@H](O)[C@@H](N(C)C)[C@@H]1O [NOGALAMYCIN]	0.1
NC(=O)c1ncn([C@@H]2O[C@H](COP(=O)(O)OP(=O)(O)O)[C@@H](O)[C@H]2O)n1	250
NC(=O)c1ncn([C@@H]2O[C@H](CO[P@@](=O)(O)O[P@](=O)(O)OP(=O)(O)O)[C@@H](O)[C@H]2O)n1 [RTP]	180
Nc1nc(=O)c2c(ncn2COCCOCc2ccccc2)c(=O)[nH]1	5.5
N=c1nc(N)c2ncn([C@H]3O[C@@H](COP(=O)(O)OP(=O)(O)OP(=O)(O)O)[C@H](O)[C@@H]3O)c2c(N)n1	0.55
